# ChEMBL document CHEMBL3758167, “4H-Thieno[3,2-c]chromene based inhibitors of Notum Pectinacetylesterase” (Bioorg Med Chem Lett, 2016)
# How the values were obtained:
# [1] = in vivo; settings: mouse, po, 10 mg/kg
# [2] = in vivo; settings: mouse, iv, 1 mg/kg
# [3] = in vivo; settings: mouse, po, 10 mg/kg; remark: listed apart in the source
# [4] = in vivo; settings: mouse, iv, 1 mg/kg; remark: listed apart in the source
# [5] = in vivo; settings: mouse, po, 10 mg/kg; remark: listed apart in the source
smiles,measurement,setting,value
O=C(O)c1cc2c(s1)-c1ccccc1CC2,AUC,[1],158 µM·h
same,clearance,[2],2.4 mL/min/kg
same,Cmax,[3],64 µM
same,Vd,[4],0.57 L/kg
same,bioavailability,[5],52%
